For six compounds, MIC90 results are on record in patent publication US8846669B2, “Oxazolidinone derivative and medical composition containing same” (Legochem Biosciences, Inc., priority 2011, dated 2014).

In brackets after ≈: the same amount, converted by molar mass. Where two headings read alike, the source gives them in different places.

Assay in all cases: In vitro antibacterial activity, broth microdilution MIC90
Common to all, as to format: cell-based

For assay [1], the system named is Moraxella catarrhalis. The note with it: Moraxella catarrhalis. On the procedure: (§1) MIC90 was measured by broth microdilution method based on CLSI standards [reference: Clinical and Laboratory Standards Institute Document. (2000) Methods for Dilution Antimicrobial Susceptibility Test for Bacteria that Grow Aerobically-Fifth Edition: M7-A5. CLSI, Villanova, Pa.].
(§2) Activities of 12 strains including Staphylococcus aureus, Methicillin Resistant Staphylococcus aureus, Staphylococcus epidermidis, Methicillin Resistant Staphylococcus epidermidis, Enterococcus faecalis, Vancomycin Resistant Enterococcus faecalis, Linezolid and Vancomycin Resistant Enterococcus faecalis, Enterococcus faecium, Vancomycin Resistant Enterococcus faecium, Linezolid and Vancomycin Resistant Enterococcus faecium, and Moraxella catarrhalis, were measured, and results are shown in Table 1 below.
(§3) The final concentration of test material in the antibacterial test was from 0.063 μg/mL (minimum) to 128 μg/mL (maximum), and the final concentration of DMSO used as an excipient was 2.5% (V/V). Linezolid represented by Formula B below (manufactured by Pfizer) was used as a control and bacterial activity thereof was compared with those of the test materials.

In assay [2] the test system is Linezolid and Vancomycin Resistant Enterococcus faecium (strain 11). The note with it: Enterococcus faecium. The procedure:
as §1, §2, §3

Assay [3] has as its system Linezolid and Vancomycin Resistant Enterococcus faecalis. Particulars: Enterococcus faecalis. On the procedure:
as §1, §2, §3

Assay [4] concerns Vancomycin Resistant Enterococcus faecium. The note with it: Enterococcus faecium. On the procedure: as §1, §2, §3
Assay [5] has as its system Linezolid and Vancomycin Resistant Enterococcus faecium (strain 10). Particulars: Enterococcus faecium. On the procedure: as §1, §2, §3
In assay [6] the test system is Vancomycin Resistant Enterococcus faecalis. Particulars: Enterococcus faecalis. On the procedure: as §1, §2, §3
Assay [7] has as its system Methicillin Resistant Staphylococcus aureus. Particulars: Staphylococcus aureus. On the procedure: as §1, §2, §3
The test system of assay [8] is Staphylococcus epidermidis. The note with it: Staphylococcus epidermidis. The procedure: as §1, §2, §3
Assay [9] has as its system Enterococcus faecalis. The note with it: Enterococcus faecalis. On the procedure:
as §1, §2, §3

In assay [10] the test system is Staphylococcus aureus. Particulars: Staphylococcus aureus. The procedure:
as §1, §2, §3

Assay [11] has as its system Methicillin Resistant Staphylococcus epidermidis. Particulars: Staphylococcus epidermidis. On the procedure: as §1, §2, §3
In assay [12] the test system is Enterococcus faecium. The note with it: Enterococcus faecium. The procedure: as §1, §2, §3
Setting [13] is: strain 12, M. catarrhalis, read-out: MIC90.
Where [14] appears, read: strain 11, E. faecium VanA LR, read-out: MIC90.
The mark [15] stands for this setting: strain 7, E. faecalis VanA LR, read-out: MIC90.
Where [16] appears, read: strain 9, E. faecium VanA, read-out: MIC90.
The mark [17] stands for this setting: strain 10, E. faecium VanA LR, read-out: MIC90.
The mark [18] stands for this setting: strain 6, E. faecalis VanA, read-out: MIC90.
[19] abbreviates: strain 2, S. aureus MR, read-out: MIC90.
[20] abbreviates: strain 3, S. epidermidis, read-out: MIC90.
The mark [21] stands for this setting: strain 5, E. faecalis, read-out: MIC90.
Where [22] appears, read: strain 1, S. aureus, read-out: MIC90.
[23] abbreviates: strain 4, S. epidermidis MR, read-out: MIC90.
Where [24] appears, read: strain 8, E. faecium, read-out: MIC90.

Take `CCN1C=NN(c2ccc(-c3ccc(N4C[C@H](CNC(C)=O)OC4=O)cc3F)cn2)CC1` [Compound 56]: the MIC90 in assay [1] (setting [13]) worked out at 2 µg/mL (≈ 4.54 µM); in assay [2] (setting [14]) it was 4 µg/mL (≈ 9.08 µM); in assay [3] (setting [15]), 4 µg/mL (≈ 9.08 µM); in assay [4] (setting [16]) it was 1 µg/mL (≈ 2.27 µM); in assay [5] (setting [17]), 4 µg/mL (≈ 9.08 µM); in assay [6] (setting [18]), 2 µg/mL (≈ 4.54 µM). Besides, the MIC90 in assay [7] (setting [19]) was found to be 4 µg/mL (≈ 9.08 µM); in assay [8] (setting [20]), 1 µg/mL (≈ 2.27 µM); in assay [9] (setting [21]), 1 µg/mL (≈ 2.27 µM); in [10] (setting [22]) it was 1 µg/mL (≈ 2.27 µM); in assay [11] (setting [23]), 2 µg/mL (≈ 4.54 µM); in assay [12] (setting [24]), 1 µg/mL (≈ 2.27 µM).
On to `C=CCN1CCN(c2ccc(-c3ccc(N4C[C@H](CNC(C)=O)OC4=O)cc3F)cn2)C=N1` [Compound 7], for which the MIC90 stood at 2 µg/mL (≈ 4.42 µM) in [1]; 4 µg/mL (≈ 8.84 µM) in assay [2]; 4 µg/mL (≈ 8.84 µM) in assay [3]; 1 µg/mL (≈ 2.21 µM) in [4]; 4 µg/mL (≈ 8.84 µM) in assay [5]; 1 µg/mL (≈ 2.21 µM) in assay [6]. The MIC90 in assay [7] worked out at 1 µg/mL (≈ 2.21 µM); in assay [8], 0.5 µg/mL (≈ 1.1 µM); in [9] it was 0.5 µg/mL (≈ 1.1 µM); in [10], 0.5 µg/mL (≈ 1.1 µM); in assay [11] it was 1 µg/mL (≈ 2.21 µM); in [12], 1 µg/mL (≈ 2.21 µM).
With `NC(=O)N1CCN(c2ccc(-c3ccc(N4C[C@H](Cn5ccnn5)OC4=O)cc3F)cn2)C=N1` [Compound 33], the MIC90 worked out at 2 µg/mL (≈ 4.3 µM) in assay [1]; 2 µg/mL (≈ 4.3 µM) in assay [2]; 2 µg/mL (≈ 4.3 µM) in assay [3]; 0.25 µg/mL (≈ 0.537 µM) in [4]; 2 µg/mL (≈ 4.3 µM) in [5]; 0.25 µg/mL (≈ 0.537 µM) in assay [6]. Also, the MIC90 came to 1 µg/mL (≈ 2.15 µM) in assay [7]; 0.25 µg/mL (≈ 0.537 µM) in assay [8]; 0.25 µg/mL (≈ 0.537 µM) in [9]; 0.25 µg/mL (≈ 0.537 µM) in assay [10]; 1 µg/mL (≈ 2.15 µM) in assay [11]; 0.125 µg/mL (≈ 0.269 µM) in assay [12].
As for `CN1CCN(c2ccc(-c3ccc(N4C[C@H](Cn5ccnn5)OC4=O)cc3F)cn2)C=N1` [Compound 31], the MIC90 in assay [1] was 2 µg/mL (≈ 4.58 µM); in assay [2] it was 2 µg/mL (≈ 4.58 µM); in [3], 2 µg/mL (≈ 4.58 µM); in [4], 0.25 µg/mL (≈ 0.573 µM); in assay [5], 1 µg/mL (≈ 2.29 µM); in [6], 0.5 µg/mL (≈ 1.15 µM). For the same compound, the MIC90 in [7] was 1 µg/mL (≈ 2.29 µM); in assay [8], 0.25 µg/mL (≈ 0.573 µM); in assay [9], 0.5 µg/mL (≈ 1.15 µM); in assay [10], 0.25 µg/mL (≈ 0.573 µM); in assay [11], 1 µg/mL (≈ 2.29 µM); in assay [12] it was 0.25 µg/mL (≈ 0.573 µM).
`O=C(CO)N1CCN(c2ccc(-c3ccc(N4C[C@H](Cn5ccnn5)OC4=O)cc3F)cn2)C=N1` [Compound 32]: the MIC90 in assay [1] was determined as 2 µg/mL (≈ 4.16 µM); in assay [2], 2 µg/mL (≈ 4.16 µM); in [3] it was 2 µg/mL (≈ 4.16 µM); in [4], 0.5 µg/mL (≈ 1.04 µM); in [5], 2 µg/mL (≈ 4.16 µM); in assay [6], 0.5 µg/mL (≈ 1.04 µM). The MIC90 in assay [7] was 1 µg/mL (≈ 2.08 µM); in [8], 0.25 µg/mL (≈ 0.52 µM); in assay [9] it was 0.5 µg/mL (≈ 1.04 µM); in assay [10], 0.25 µg/mL (≈ 0.52 µM); in assay [11], 1 µg/mL (≈ 2.08 µM); in assay [12], 0.25 µg/mL (≈ 0.52 µM).
For `CC(=O)NC[C@H]1CN(c2ccc(-c3ccc(C4=NOCCN4)nc3)c(F)c2)C(=O)O1` [Compound 64], the MIC90 in [1] (setting [13]) came out at 2 µg/mL (≈ 4.84 µM); in assay [2] (setting [14]), 2 µg/mL (≈ 4.84 µM); in assay [3] (setting [15]) it was 1 µg/mL (≈ 2.42 µM); in assay [4] (setting [16]), 0.25 µg/mL (≈ 0.605 µM); in assay [5] (setting [17]), 1 µg/mL (≈ 2.42 µM); in assay [6] (setting [18]), 0.25 µg/mL (≈ 0.605 µM). In addition, the MIC90 in [7] (setting [19]) worked out at 0.5 µg/mL (≈ 1.21 µM); in assay [8] (setting [20]), 0.25 µg/mL (≈ 0.605 µM); in assay [9] (setting [21]) it was 0.25 µg/mL (≈ 0.605 µM); in assay [10] (setting [22]), 0.25 µg/mL (≈ 0.605 µM); in assay [11] (setting [23]), 0.5 µg/mL (≈ 1.21 µM); in assay [12] (setting [24]) it was 0.25 µg/mL (≈ 0.605 µM).
